Source: PMC9120017, “Inhibition mechanism of the chloride channel TMEM16A by the pore blocker 1PBC” (Nature Communications, 2022)
Like-named read-outs stand apart in the source and are kept apart here.

Target: T1, mouse TMEM16A mutant Y598A (Mus musculus, UniProt Q8BHY3, Y598A)
T1 construct: expressed in transfected cells; host or cells: HEK293T
T1 sequence (Q8BHY3 1-960 Y598A): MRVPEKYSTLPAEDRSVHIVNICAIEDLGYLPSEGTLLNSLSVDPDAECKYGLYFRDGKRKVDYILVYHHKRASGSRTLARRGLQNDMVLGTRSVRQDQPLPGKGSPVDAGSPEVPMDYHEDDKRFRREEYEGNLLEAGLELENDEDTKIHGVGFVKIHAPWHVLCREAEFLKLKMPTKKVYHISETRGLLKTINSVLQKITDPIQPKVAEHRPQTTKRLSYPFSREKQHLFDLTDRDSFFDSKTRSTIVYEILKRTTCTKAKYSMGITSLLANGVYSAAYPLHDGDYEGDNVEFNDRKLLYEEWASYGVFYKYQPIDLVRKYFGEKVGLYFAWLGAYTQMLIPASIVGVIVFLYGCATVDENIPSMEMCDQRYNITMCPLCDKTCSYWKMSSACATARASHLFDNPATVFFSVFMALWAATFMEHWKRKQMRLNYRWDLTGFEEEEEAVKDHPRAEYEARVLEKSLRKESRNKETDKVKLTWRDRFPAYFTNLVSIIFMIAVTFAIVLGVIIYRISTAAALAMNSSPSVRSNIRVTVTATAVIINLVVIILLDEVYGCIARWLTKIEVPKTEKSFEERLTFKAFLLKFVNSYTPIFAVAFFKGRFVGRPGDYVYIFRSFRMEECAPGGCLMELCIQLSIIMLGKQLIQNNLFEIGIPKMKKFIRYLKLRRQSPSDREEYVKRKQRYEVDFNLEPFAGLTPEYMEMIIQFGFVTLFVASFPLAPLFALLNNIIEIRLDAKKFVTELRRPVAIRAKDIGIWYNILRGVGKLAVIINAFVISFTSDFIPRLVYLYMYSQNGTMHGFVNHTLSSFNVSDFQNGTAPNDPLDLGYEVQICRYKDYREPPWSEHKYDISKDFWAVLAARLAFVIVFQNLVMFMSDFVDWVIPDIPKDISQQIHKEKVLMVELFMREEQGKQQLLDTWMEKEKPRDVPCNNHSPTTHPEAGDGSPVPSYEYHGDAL
Experiment: Inside-out patch recording of 1PBC block, mutant Y598A
Type: cell-based
Details: for IC50: 2 µM Ca2+; for remaining activity at 3 µM: 1PBC conc 3; for remaining activity at 3 µM / remaining activity at 10 µM / remaining activity at 30 µM: read-out: relative current in 1PBC (avr); for remaining activity at 10 µM: 1PBC conc 10; for remaining activity at 30 µM: 1PBC conc 30
Description: HEK293T cells (ATCC CRL-1573) were maintained in Dulbecco’s modified Eagle’s medium (DMEM; Sigma-Aldrich) supplemented with 10 U ml^−1 penicillin, 0.1 mg ml^−1 streptomycin (Sigma-Aldrich), 2 mM L-glutamine (Sigma-Aldrich), and 10% FBS (Sigma-Aldrich) in a humidified atmosphere containing 5% CO2 at 37 °C. HEK293S GnTI^− cells (ATCC CRL-3022) were maintained in HyClone HyCell TransFx-H medium (GE Healthcare) supplemented with 10 U ml^−1 penicillin, 0.1 mg ml^−1 streptomycin, 4 mM L-glutamine, 0.15% poloxamer 188 (Sigma-Aldrich), and 1% FBS in an atmosphere containing 5% CO2 at 185 rpm at 37 °C. The ac splice variant of mouse TMEM16A (UniProt ID: Q8BHY3), mouse TMEM16B (UniProt ID: Q8CFW1), or mouse TMEM16F (UniProt ID: Q6P9J9) bearing a 3C cleavage site, a Venus YFP, a Myc tag, and a Streptavidin-binding peptide (SBP) downstream of the open reading frame in a modified pcDNA3.1 vector (Invitrogen) were used as described previously[21],[31]. Mutations were introduced using a modified QuikChange method[58] and were verified by sequencing.
HEK293T cells were transfected with 3–4 μg DNA per 6 cm Petri dish using the calcium phosphate co-precipitation method and were used within 24–96 h after transfection. Recordings were performed on inside-out patches excised from HEK293T cells expressing the construct of interest. Patch pipettes were pulled from borosilicate glass capillaries (O.D. 1.5 mm, I.D. 0.86 mm, Sutter Instrument) and were fire-polished with a microforge (Narishige) before use. Pipette resistance was typically 3–8 MΩ when filled with the recording solutions detailed below. Seal resistance was typically 4 GΩ or higher. Voltage-clamp recordings were made using Axopatch 200B, Digidata 1550, and Clampex 10.7 (Molecular Devices). Analog signals were filtered with the in-built 4-pole Bessel filter at 10 kHz and were digitized at 20 kHz. Solution exchange was achieved using a gravity-fed system through a theta glass pipette mounted on an ultra-fast piezo-driven stepper (Siskiyou). […] All recordings were performed at 20 °C.
A symmetrical ionic condition was used throughout. Stock solution with Ca^2+-EGTA contained 150 mM NaCl, 5.99 mM Ca(OH)2, 5 mM EGTA, and 10 mM HEPES at pH 7.40. Stock solution with EGTA contained 150 mM NaCl, 5 mM EGTA, and 10 mM HEPES at pH 7.40. Free Ca^2+ concentrations were adjusted by mixing the stock solutions at the required ratios calculated using the WEBMAXC program (http://web.stanford.edu/~cpatton/webmaxcS.htm). Patch pipettes were filled with the stock solution with Ca^2+-EGTA, which has a free Ca^2+ concentration of 1 mM. 1PBC (ChemBridge) stock was reconstituted in anhydrous DMSO (Sigma-Aldrich) at 100 mM and stored at −20 °C. Working solutions with 1PBC were prepared by serial dilution. Unless otherwise stated, experiments were performed at a saturating Ca^2+ concentration as shown in Supplementary Table 1 and the primary data were corrected for current rundown as described previously[21],[25].
Concentration-response relations, obtained from the ratio of the I-V plots before and after the application of the blocker, were fitted to the Hill equation,1 I/Imax=1/1+IC50/[blocker]^h where I/Imax is the normalized current responses, IC50 defines the concentration at which inhibition is at its half-maximum, and h is the Hill coefficient.

For `N#Cc1c(C(F)(F)F)cc(O)n2c1nc1ccccc12` [1PBC], which IC50 (0 mV) is on record?
Its IC50 is 5 µM.

And the remaining activity at 3 µM (0 mV)?
The remaining activity at 3 µM was 62.2%.

What about the remaining activity at 10 µM (0 mV) of the same compound?
Its remaining activity at 10 µM is 32.7%.

And the remaining activity at 30 µM (0 mV)?
The remaining activity at 30 µM was 16.1%.

And the “normalised current (avr)” value (1PBC 3, V 0 mV)?
The value was -0.0008127.

And the “normalised current (avr)” value (1PBC 3, V 20 mV)?
Its value is 0.0806.

What about the “normalised current (avr)” value (1PBC 3, V 40 mV) of the same compound?
Its value is 0.1479.

What about the “normalised current (avr)” value (1PBC 3, V 60 mV) of the same compound?
The value was 0.2094.

And the “normalised current (avr)” value (1PBC 3, V 80 mV)?
The value was 0.2692.

What about the “normalised current (avr)” value (1PBC 3, V 100 mV) of the same compound?
The value was 0.3374.

And the “normalised current (avr)” value (1PBC 3, V 120 mV)?
The value was 0.4035.

And the “normalised current (avr)” value (1PBC 3, V 140 mV)?
The value was 0.5334.

And the “normalised current (avr)” value (1PBC 3, V -20 mV)?
The value was -0.0953.

What about the “normalised current (avr)” value (1PBC 3, V -40 mV) of the same compound?
Its value is -0.2038.

What about the “normalised current (avr)” value (1PBC 3, V -60 mV) of the same compound?
Its value is -0.3243.

What about the “normalised current (avr)” value (1PBC 3, V -80 mV) of the same compound?
The value was -0.4624.

What about the “normalised current (avr)” value (1PBC 3, V -100 mV) of the same compound?
Its value is -0.5959.

And the “normalised current (avr)” value (1PBC 3, V -120 mV)?
The value was -0.7447.

What about the “normalised current (avr)” value (1PBC 3, V -140 mV) of the same compound?
Its value is -0.8933.

What about the “normalised current (avr)” value (1PBC 10, V 0 mV) of the same compound?
The value was -0.0004268.

What about the “normalised current (avr)” value (1PBC 10, V 20 mV) of the same compound?
The value was 0.04176.

What about the “normalised current (avr)” value (1PBC 10, V 40 mV) of the same compound?
The value was 0.07281.

And the “normalised current (avr)” value (1PBC 10, V 60 mV)?
Its value is 0.101.

What about the “normalised current (avr)” value (1PBC 10, V 80 mV) of the same compound?
Its value is 0.1339.

And the “normalised current (avr)” value (1PBC 10, V 100 mV)?
The value was 0.1691.

And the “normalised current (avr)” value (1PBC 10, V 120 mV)?
Its value is 0.2139.

And the “normalised current (avr)” value (1PBC 10, V 140 mV)?
Its value is 0.279.

What about the “normalised current (avr)” value (1PBC 10, V -20 mV) of the same compound?
Its value is -0.05063.

And the “normalised current (avr)” value (1PBC 10, V -40 mV)?
Its value is -0.1149.

What about the “normalised current (avr)” value (1PBC 10, V -60 mV) of the same compound?
The value was -0.2039.

And the “normalised current (avr)” value (1PBC 10, V -80 mV)?
Its value is -0.3102.

What about the “normalised current (avr)” value (1PBC 10, V -100 mV) of the same compound?
Its value is -0.4329.

And the “normalised current (avr)” value (1PBC 10, V -120 mV)?
Its value is -0.5455.

What about the “normalised current (avr)” value (1PBC 10, V -140 mV) of the same compound?
Its value is -0.6513.

What about the “normalised current (avr)” value (1PBC 30, V 0 mV) of the same compound?
Its value is -0.0002099.

And the “normalised current (avr)” value (1PBC 30, V 20 mV)?
The value was 0.02319.

What about the “normalised current (avr)” value (1PBC 30, V 40 mV) of the same compound?
Its value is 0.04085.

What about the “normalised current (avr)” value (1PBC 30, V 60 mV) of the same compound?
The value was 0.05628.

What about the “normalised current (avr)” value (1PBC 30, V 80 mV) of the same compound?
The value was 0.08124.

What about the “normalised current (avr)” value (1PBC 30, V 100 mV) of the same compound?
The value was 0.1064.

What about the “normalised current (avr)” value (1PBC 30, V 120 mV) of the same compound?
The value was 0.1384.

What about the “normalised current (avr)” value (1PBC 30, V 140 mV) of the same compound?
Its value is 0.17.

And the “normalised current (avr)” value (1PBC 30, V -20 mV)?
The value was -0.02219.

What about the “normalised current (avr)” value (1PBC 30, V -40 mV) of the same compound?
The value was -0.05555.

And the “normalised current (avr)” value (1PBC 30, V -60 mV)?
The value was -0.09343.

And the “normalised current (avr)” value (1PBC 30, V -80 mV)?
The value was -0.1537.

What about the “normalised current (avr)” value (1PBC 30, V -100 mV) of the same compound?
The value was -0.2141.

And the “normalised current (avr)” value (1PBC 30, V -120 mV)?
The value was -0.2888.

What about the “normalised current (avr)” value (1PBC 30, V -140 mV) of the same compound?
The value was -0.3717.

What about the IC50 (20 mV) of the same compound?
Its IC50 is 4.35 µM.

What about the remaining activity at 3 µM (20 mV) of the same compound?
The remaining activity at 3 µM was 57.7%.

What about the remaining activity at 10 µM (20 mV) of the same compound?
Its remaining activity at 10 µM is 29.9%.

What about the remaining activity at 30 µM (20 mV) of the same compound?
Its remaining activity at 30 µM is 16.6%.

What about the IC50 (40 mV) of the same compound?
Its IC50 is 3.57 µM.

And the remaining activity at 3 µM (40 mV)?
The remaining activity at 3 µM was 52.9%.

What about the remaining activity at 10 µM (40 mV) of the same compound?
Its remaining activity at 10 µM is 26.1%.

What about the remaining activity at 30 µM (40 mV) of the same compound?
The remaining activity at 30 µM was 14.6%.

What about the IC50 (60 mV) of the same compound?
Its IC50 is 3.16 µM.

What about the remaining activity at 3 µM (60 mV) of the same compound?
The remaining activity at 3 µM was 49.9%.

What about the remaining activity at 10 µM (60 mV) of the same compound?
The remaining activity at 10 µM was 24.1%.
